Values of other authors, collected in patent publication US20210236583A1, “Targeting the renin-angiotensin system for treatment of environment-and pathogen-induced lung injury” (priority 2020, published 2021).

Test system: mice
Settings: direct injection of recombinant ACE2 protein

## recombinant ACE2 protein: recombinant ACE2 protein injected directly, from the literature (Imai et al., 2005)
  protection from severe acute lung injury: protect mice from severe acute lung injury
